Reference: ChEMBL document CHEMBL5465560, “Selectivity Literature for EUbOPEN Chemogenomic Library” (2024)

Columns and labels:
[1] = molecular target: T1, Serine/threonine-protein kinase ULK1 (Homo sapiens) (UniProt O75385); assay: Selectivity interaction (KinomeScan (DiscoverX)) EUB0001079a ULK1; details: at 1 µM
T1 sequence (whole entry): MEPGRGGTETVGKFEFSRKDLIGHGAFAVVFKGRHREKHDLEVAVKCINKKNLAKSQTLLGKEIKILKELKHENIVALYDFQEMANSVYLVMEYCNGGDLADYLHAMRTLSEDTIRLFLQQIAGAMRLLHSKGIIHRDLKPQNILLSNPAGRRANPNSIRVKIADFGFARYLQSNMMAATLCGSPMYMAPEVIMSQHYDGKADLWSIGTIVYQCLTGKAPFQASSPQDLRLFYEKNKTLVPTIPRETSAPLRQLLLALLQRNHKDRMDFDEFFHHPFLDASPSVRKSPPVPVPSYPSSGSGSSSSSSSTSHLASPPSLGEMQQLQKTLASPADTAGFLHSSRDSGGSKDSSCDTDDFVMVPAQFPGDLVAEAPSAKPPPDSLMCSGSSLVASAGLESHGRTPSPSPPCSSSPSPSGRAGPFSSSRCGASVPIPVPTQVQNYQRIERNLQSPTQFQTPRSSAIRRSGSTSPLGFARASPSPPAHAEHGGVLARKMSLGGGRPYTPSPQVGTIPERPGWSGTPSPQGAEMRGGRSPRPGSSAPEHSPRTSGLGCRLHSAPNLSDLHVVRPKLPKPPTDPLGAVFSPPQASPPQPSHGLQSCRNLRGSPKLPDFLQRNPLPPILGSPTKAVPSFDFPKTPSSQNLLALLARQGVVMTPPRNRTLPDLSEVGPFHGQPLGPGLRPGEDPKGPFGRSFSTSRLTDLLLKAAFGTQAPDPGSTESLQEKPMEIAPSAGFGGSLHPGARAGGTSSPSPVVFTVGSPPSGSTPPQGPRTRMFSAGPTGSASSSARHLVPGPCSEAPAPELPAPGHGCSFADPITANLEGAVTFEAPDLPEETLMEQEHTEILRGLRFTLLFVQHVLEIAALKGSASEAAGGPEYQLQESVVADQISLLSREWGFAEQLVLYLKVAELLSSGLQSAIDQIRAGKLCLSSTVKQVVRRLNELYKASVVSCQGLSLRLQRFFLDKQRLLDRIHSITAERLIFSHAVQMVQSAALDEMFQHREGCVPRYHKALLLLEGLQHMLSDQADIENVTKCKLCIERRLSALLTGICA

[2] = molecular target: T2, cGMP-dependent protein kinase 1 (Homo sapiens) (UniProt Q13976); details: at 10 µM
T2 sequence (whole entry): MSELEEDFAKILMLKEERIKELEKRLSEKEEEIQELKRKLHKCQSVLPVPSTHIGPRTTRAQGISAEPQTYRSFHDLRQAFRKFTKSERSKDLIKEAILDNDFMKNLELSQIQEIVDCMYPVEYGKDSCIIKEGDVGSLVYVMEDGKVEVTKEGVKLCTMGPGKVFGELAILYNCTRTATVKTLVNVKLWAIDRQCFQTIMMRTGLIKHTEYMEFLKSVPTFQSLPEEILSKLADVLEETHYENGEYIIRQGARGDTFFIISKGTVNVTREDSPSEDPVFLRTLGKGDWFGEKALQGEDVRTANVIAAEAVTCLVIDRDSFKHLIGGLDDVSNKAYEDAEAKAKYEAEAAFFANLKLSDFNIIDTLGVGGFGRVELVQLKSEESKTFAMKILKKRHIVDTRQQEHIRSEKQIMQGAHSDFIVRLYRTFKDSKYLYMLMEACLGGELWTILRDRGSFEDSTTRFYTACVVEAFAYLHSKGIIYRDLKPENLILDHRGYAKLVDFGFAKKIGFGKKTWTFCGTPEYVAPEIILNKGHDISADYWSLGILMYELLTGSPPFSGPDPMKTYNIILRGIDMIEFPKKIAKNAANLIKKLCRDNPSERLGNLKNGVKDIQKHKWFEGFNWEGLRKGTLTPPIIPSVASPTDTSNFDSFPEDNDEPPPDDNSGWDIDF

[3] = molecular target: Mitogen-activated protein kinase 10 (Homo sapiens, UniProt P53779); assay: Selectivity interaction (ActivX KiNativ screen (kinase selectivity in THP-1 cell lysates)) EUB0000639a MAPK10; type: subcellular; details: lysate
[4] = molecular target: MAP kinase-interacting serine/threonine-protein kinase 1 (Homo sapiens) (UniProt Q9BUB5); assay: Selectivity interaction (KinomeScan (DiscoverX)) EUB0000595a MKNK1; details: at 10 µM
[5] = molecular target: Serine/threonine-protein kinase 32B (Homo sapiens) (UniProt Q9NY57); assay: Selectivity interaction (Ambit KINOMEscan and KiNATiv profiling in Jurkat cells) EUB0000090b STK32B; type: cell-based; details: at 1 µM
[6] = molecular target: Serine/threonine-protein kinase 38 (Homo sapiens) (UniProt Q15208); assay: Selectivity interaction (KinomeScan (DiscoverX)) EUB0000045b STK38
[7] = molecular target: T3, Dual specificity mitogen-activated protein kinase kinase 5 (Homo sapiens) (UniProt Q13163); assay: Selectivity interaction (KinomeScan (DiscoverX)) EUB0000045b MAP2K5
T3 sequence (whole entry): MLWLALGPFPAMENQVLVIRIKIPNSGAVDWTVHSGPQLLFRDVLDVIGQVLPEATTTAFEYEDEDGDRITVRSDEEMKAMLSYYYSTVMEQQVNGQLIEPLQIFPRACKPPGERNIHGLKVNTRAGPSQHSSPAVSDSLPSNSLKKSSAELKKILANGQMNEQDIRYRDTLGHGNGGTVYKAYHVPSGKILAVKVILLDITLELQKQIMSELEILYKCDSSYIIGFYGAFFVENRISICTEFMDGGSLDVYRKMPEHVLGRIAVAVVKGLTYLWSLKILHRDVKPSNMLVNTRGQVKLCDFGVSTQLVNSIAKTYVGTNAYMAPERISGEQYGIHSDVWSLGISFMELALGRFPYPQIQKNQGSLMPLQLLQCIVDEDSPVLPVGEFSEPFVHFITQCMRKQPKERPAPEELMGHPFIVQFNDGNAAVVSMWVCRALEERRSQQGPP

Sequence of Mitogen-activated protein kinase 10 (P53779 whole entry): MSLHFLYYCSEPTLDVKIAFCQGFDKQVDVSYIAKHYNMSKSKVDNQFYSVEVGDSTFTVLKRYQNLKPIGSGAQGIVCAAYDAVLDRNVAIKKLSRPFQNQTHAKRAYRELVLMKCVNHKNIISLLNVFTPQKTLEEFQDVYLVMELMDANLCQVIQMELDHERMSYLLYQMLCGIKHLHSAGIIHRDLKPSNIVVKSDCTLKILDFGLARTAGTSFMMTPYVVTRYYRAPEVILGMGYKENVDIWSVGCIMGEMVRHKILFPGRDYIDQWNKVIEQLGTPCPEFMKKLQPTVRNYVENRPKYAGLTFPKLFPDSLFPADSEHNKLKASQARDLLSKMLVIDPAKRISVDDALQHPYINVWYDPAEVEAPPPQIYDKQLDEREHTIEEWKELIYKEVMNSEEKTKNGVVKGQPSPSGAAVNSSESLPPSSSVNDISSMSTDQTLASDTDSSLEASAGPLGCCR
Sequence of Serine/threonine-protein kinase 38 (Homo sapiens) (Q15208 2-465 limits assumed): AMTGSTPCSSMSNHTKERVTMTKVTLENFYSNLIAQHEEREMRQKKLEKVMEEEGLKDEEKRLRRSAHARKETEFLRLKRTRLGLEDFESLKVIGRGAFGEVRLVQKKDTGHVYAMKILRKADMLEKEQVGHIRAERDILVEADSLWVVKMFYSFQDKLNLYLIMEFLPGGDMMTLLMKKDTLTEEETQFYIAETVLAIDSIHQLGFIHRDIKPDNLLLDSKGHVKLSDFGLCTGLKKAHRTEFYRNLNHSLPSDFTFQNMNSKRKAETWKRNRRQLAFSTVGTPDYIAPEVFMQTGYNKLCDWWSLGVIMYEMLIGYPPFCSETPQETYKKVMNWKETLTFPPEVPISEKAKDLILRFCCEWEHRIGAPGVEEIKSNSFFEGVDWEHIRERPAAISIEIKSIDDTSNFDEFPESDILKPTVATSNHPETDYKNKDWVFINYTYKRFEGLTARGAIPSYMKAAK
Sequence of MAP kinase-interacting serine/threonine-protein kinase 1 (Homo sapiens) (Q9BUB5 whole entry, looked up): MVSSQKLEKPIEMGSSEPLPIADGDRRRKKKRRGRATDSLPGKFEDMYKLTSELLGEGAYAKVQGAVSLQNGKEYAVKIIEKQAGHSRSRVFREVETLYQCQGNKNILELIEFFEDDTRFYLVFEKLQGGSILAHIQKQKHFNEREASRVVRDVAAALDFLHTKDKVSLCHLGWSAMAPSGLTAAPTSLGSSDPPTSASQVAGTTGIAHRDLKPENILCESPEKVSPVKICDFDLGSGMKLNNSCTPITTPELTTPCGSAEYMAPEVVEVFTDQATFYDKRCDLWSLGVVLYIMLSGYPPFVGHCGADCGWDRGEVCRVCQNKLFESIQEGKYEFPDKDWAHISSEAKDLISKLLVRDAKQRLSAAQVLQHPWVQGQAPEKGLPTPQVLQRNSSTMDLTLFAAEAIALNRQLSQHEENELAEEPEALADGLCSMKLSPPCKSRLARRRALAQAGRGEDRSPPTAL
Sequence of Serine/threonine-protein kinase 32B (Homo sapiens) (Q9NY57 whole entry): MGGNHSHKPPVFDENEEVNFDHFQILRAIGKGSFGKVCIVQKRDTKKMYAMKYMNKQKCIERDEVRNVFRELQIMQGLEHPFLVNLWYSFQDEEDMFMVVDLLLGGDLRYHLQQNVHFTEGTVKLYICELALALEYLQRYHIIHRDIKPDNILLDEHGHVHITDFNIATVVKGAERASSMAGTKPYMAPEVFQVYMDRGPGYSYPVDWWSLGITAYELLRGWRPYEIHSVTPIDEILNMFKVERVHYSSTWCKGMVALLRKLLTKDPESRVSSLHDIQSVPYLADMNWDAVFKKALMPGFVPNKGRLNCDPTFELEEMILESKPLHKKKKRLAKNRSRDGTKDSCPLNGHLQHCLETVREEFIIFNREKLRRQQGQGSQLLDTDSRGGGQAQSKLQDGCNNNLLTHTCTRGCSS

Question: With `Nc1cnc(N2CCc3cc(S(=O)(=O)Nc4c(F)cc(Cl)cc4F)cc(N4CCCC4=O)c32)nc1` [TP-020n] as the molecule, how does the % of control [1] read?
Answer: 95%

Question: For `CCN(CC)CCCCNc1ncc2cc(-c3cc(OC)cc(OC)c3)c(NC(=O)NC(C)(C)C)nc2n1`, which % of control [2] is on record?
Answer: 100%

Question: How did the % of inhibition ([3]; at 0.01 µM) turn out when `CC[C@@H]1[C@H](F)C(=O)N[C@@H]1COc1nccc2cc(C(N)=O)c(OC)cc12` [ZIMLOVISERTIB] was run?
Answer: 13.3%

Question: And the % of inhibition ([3]; at 0.04 µM)?
Answer: -1.4%

Question: And the % of inhibition ([3]; at 0.2 µM)?
Answer: 1.6%

Question: What about the % of inhibition ([3]; at 1 µM) of the same molecule?
Answer: 27.7%

Question: And the % of inhibition ([3]; at 5 µM)?
Answer: 57.5%

Question: `COCC(=O)NC/C=C/c1ccc2ncnc(Nc3ccc(Oc4ccc(C)nc4)c(C)c3)c2c1` [CP-724714] was tested. Which % of control [4] did it give?
Answer: 100%

Question: Which % of control [5] does the source give for `CN(C)C/C=C/C(=O)Nc1ccc(C(=O)N2CCCC(Nc3ncc(Cl)c(-c4c[nH]c5ccccc45)n3)C2)cc1` (stereo not drawn) here?
Answer: 90%

Question: How did the % of control ([6]; at 1 µM) turn out when `C=CC(=O)Nc1cc(-n2c(=O)ccc3cnc4ccc(-c5ccc(NS(C)(=O)=O)cc5)cc4c32)ccc1C` was run?
Answer: 100%

Question: What about the % of control ([6]; at 10 µM) of the same molecule?
Answer: 100%

Question: And the % of control ([7]; at 1 µM)?
Answer: 100%

Question: What about the % of control ([7]; at 10 µM) of the same molecule?
Answer: 64%
